From patent publication US6656947B2, “Antidepressant azaheterocyclylmethyl derivatives of 2,3-dihydro-1,4-dioxino[2,3-f]quinazoline” (Wyeth, priority 2001, dated 2003) come the findings set out here.

Molecules are shown by their SMILES.

For one series, the target named is T1, serotonin transporter (Rattus norvegicus, UniProt P31652).
T1 construct: displace ^3H-paroxetine from male rat frontal cortical membranes; from tissue; host or cells: male rat frontal cortex membranes
Briefly: 3H-paroxetine displacement, serotonin transporter affinity. The series is classed as binding.

In another series the target is T2, human 5-HT1A receptors (Homo sapiens, UniProt P08908).
T2 construct: expressed in transfected cells; host or cells: CHO cells
T2 sequence (P08908 1-422): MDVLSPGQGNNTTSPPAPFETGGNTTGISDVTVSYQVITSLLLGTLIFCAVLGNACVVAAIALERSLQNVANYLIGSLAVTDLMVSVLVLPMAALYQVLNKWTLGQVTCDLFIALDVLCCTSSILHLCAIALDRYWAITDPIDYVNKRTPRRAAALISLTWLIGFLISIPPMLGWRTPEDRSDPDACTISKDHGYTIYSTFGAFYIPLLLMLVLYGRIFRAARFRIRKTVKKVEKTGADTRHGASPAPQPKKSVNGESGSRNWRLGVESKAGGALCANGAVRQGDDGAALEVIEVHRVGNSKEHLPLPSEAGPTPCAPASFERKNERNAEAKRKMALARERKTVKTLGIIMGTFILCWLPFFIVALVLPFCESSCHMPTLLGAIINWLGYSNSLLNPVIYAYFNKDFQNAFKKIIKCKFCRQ
Briefly: [3H] 8-OHDPAT displacement, 5-HT1A receptor affinity. The series is classed as binding. From the text: High affinity for the serotonin 5-HT1A receptor was established by testing the claimed compound's ability to displace [^3H] 8-OHDPAT (dipropylamino-tetralin) from the 5-HT1A serotonin receptor following a modification of the procedure of Hall et al., J. Neurochem. 44, 1685 (1985) which utilizes CHO cells stably transfected with human 5-HT1A receptors.

The target in series [1] is T3, cloned human 5-HT1A receptors (Homo sapiens, UniProt P08908).
T3 construct: expressed in transfected cells
T3 sequence (P08908 1-422): T2 sequence (P08908 1-422)
Kind of series: 35S-GTPγS binding assay, 5-HT1A antagonist activity. It is filed as biochemical. The conditions noted are these: reversal of the effects of standard agonist 8-OHDPAT on 35S-GTPγS binding; for IC50: membranes with cloned human 5-HT1A receptors, read-out: 5-HT1A Function IC50; for 5-HT1A Function Imax (maximum inhibitory effect): value in parentheses. Here is the method: Antagonist activity at 5-HT1A receptors was established by using a ^35S-GTPγS binding assay similar to that used by Lazareno and Birdsall (Br. J. Pharmacol. 109: 1120, 1993), in which the test compound's ability to affect the binding of ^35S-GTPγS to membranes containing cloned human 5-HT1A receptors was determined. Agonists produce an increase in binding whereas antagonists produce no increase but rather reverse the effects of the standard agonist 8-OHDPAT. The test compound's maximum inhibitory effect is represented as the Imax, while its potency is defined by the IC50.
(In general: Binding of GTPγS marks nucleotide exchange on a G protein.)

T1 sequence (P31652 whole entry): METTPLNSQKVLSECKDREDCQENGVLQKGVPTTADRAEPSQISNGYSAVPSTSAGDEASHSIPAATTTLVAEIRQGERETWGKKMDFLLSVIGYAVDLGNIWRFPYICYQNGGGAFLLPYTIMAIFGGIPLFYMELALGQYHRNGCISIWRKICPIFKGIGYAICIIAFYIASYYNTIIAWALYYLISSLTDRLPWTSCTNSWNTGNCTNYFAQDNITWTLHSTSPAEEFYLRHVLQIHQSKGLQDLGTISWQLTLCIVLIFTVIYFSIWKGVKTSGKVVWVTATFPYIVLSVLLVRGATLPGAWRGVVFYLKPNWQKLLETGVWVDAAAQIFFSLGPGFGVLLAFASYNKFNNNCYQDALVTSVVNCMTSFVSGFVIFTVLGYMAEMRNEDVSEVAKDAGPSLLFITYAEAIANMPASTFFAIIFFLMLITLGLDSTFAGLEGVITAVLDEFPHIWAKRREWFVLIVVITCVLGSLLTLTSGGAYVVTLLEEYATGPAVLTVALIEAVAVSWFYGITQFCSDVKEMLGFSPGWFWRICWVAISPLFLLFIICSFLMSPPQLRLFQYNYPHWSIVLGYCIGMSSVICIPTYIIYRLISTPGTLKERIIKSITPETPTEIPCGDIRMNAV

In general, melting point refers to the temperature of the solid-liquid transition. `Fc1ccc2[nH]cc(C3=CCN(CC4COc5ccc6ncncc6c5O4)CC3)c2c1` (stereo not drawn) (hydrate or solvate) [Example 1, 2-[(4-(5-Fluoro-1H-indol-3-yl)-3,6-dihydropyridin-1(2H)-yl)methyl]-2,3-dihydro[1,4]dioxino[2,3-f]quinazoline]: the melting point fell in the range of 233 to 235 °C.
`C1=C(c2c[nH]c3ccccc23)CCN(CC2COc3ccc4ncncc4c3O2)C1` (stereo not drawn) (hydrate or solvate) [Example 2, 2-[(4-(1H-Indol-3-yl)-3,6-dihydropyridin-1(2H)-yl)methyl]-2,3-dihydro[1,4]dioxino[2,3-f]quinazoline] had a melting point of 204 to 207 °C.
On the same count and under the same terms, the result for `Cc1ncc2c3c(ccc2n1)OCC(CN1CC=C(c2c[nH]c4ccccc24)CC1)O3` (stereo not drawn) (hydrate or solvate) [Example 4, 2-[(4-(1H-Indol-3-yl)-3,6-dihydropyridin-1(2H)-yl)methyl]-8-methyl-2,3-dihydro[1,4]dioxino[2,3-f]quinazoline] reads 198 to 202 °C.
As a reminder, the Ki is the dissociation constant of the complex between target and ligand, obtained from inhibition or displacement. One may read the IC50 as the concentration needed to halve the response being measured. `Fc1ccc2[nH]cc(C3=CCN(CC4COc5ccc6ncncc6c5O4)CC3)c2c1` (stereo not drawn) [Example 1, 2-[(4-(5-Fluoro-1H-indol-3-yl)-3,6-dihydropyridin-1(2H)-yl)methyl]-2,3-dihydro[1,4]dioxino[2,3-f]quinazoline]: the Ki at serotonin transporter is 2.24 nM. The Ki at human 5-HT1A receptors was 51.5 nM. Further, in series [1], the 50% inhibitory concentration (IC50) was 499 nM and the “5-HT1A Function Imax (maximum inhibitory effect)” value is “(94.0)”.
Turning to `C1=C(c2c[nH]c3ccccc23)CCN(CC2COc3ccc4ncncc4c3O2)C1` (stereo not drawn) [Example 2, 2-[(4-(1H-Indol-3-yl)-3,6-dihydropyridin-1(2H)-yl)methyl]-2,3-dihydro[1,4]dioxino[2,3-f]quinazoline], the values for the inhibition constant Ki at serotonin transporter and at human 5-HT1A receptors were 2.87 nM and 15 nM, respectively. In addition, the IC50 in series [1] amounted to 379 nM. Besides, in series [1], the “5-HT1A Function Imax (maximum inhibitory effect)” value was “(100)”.
The matching figures for `Cc1nc2ccc3c(c2c[n+]1[O-])OC(CN1CC=C(c2c[nH]c4ccccc24)CC1)CO3` (stereo not drawn) [Example 3, 2-[(4-(1H-Indol-3-yl)-3,6-dihydropyridin-1(2H)-yl)methyl]-8-methyl-2,3-dihydro[1,4]dioxino[2,3-f]quinazoline 9-oxide]: 4.64 nM, 25.6 nM, 440 nM and “(94.0)”.
On the same counts, the results for `Cc1ncc2c3c(ccc2n1)OCC(CN1CC=C(c2c[nH]c4ccccc24)CC1)O3` (stereo not drawn) [Example 4, 2-[(4-(1H-Indol-3-yl)-3,6-dihydropyridin-1(2H)-yl)methyl]-8-methyl-2,3-dihydro[1,4]dioxino[2,3-f]quinazoline] are 2.26 nM, 2.4 nM, 116 nM and “(100)”.
`CCc1ncc2c3c(ccc2n1)OCC(CN1CC=C(c2c[nH]c4ccccc24)CC1)O3` (stereo not drawn) [Example 5, 2-[(4-(1H-Indol-3-yl)-3,6-dihydropyridin-1(2H)-yl)methyl]-8-ethyl-2,3-dihydro[1,4]dioxino[2,3-f]quinazoline] had a melting point of 203 to 211 °C. On serotonin transporter, this compound gave a Ki of 4.25 nM. At human 5-HT1A receptors, the inhibitory constant (Ki) worked out at 8.27 nM. In series [1], the IC50 was 209 nM and the “5-HT1A Function Imax (maximum inhibitory effect)” value was “(100)”.
